Positions of bridges follow the written chain, without caps; N, C: chain ends. Non-standard residues stand in square brackets, D forms with d. Residues, ends and D or L forms follow the SMILES beside them. Groups on a side chain read outwards from the residue. *: point of attachment. DOTA = O=C(O)CN1CCN(CC(=O)O)CCN(CC(=O)*)CCN(CC(=O)O)CC1; 2Nal = N[C@@H](Cc1ccc2ccccc2c1)C(=O)O; Lys(iPr) = CC(C)NCCCC[C@H](N)C(=O)O
Test system: Z138 xenograft
Assay: Dosimetry, Human Extrapolated from Mouse Model, based on Z138 xenograft mice
Assay type: in vivo
Settings: Lu-177, Z138 xenograft mice
From the text: The multi-time-point organ uptake obtained from biodistribution data of ^177Lu-labeled analogs was decayed to their appropriate time-point, fitted to a mono-exponential or bi-exponential model (fit chosen based on R2 and residuals) in Python (version 3.7). The area under the curve was used to compute residence times which were multiplied by model organ mass for human (NURBS model) and mouse (25 g MOBY mouse phantom) for use in OLINDA/EXM software (Hermes Medical Solution; version 2.0) that calculated dosimetry for an average mouse (Stabin et al., J Nucl Med. 2005, 46:1023-1027; Keenan et al., J Nucl Med. 2010, 51:471-476) and extrapolated to an average human male (Segars et al., J Nucl Med. 2001, 42:7; Stabin et al., J Nucl Med. 2012, 53:1807-13).

Structure (SMILES): CC(C)NCCCC[C@@H]1NC(=O)[C@H](Cc2ccc(O)cc2)NC(=O)[C@H](Cc2ccccc2)NC(=O)CC[C@H](C(=O)N[C@@H](CCCCNC(C)C)C(=O)N[C@@H](CCCCNC(=O)[C@H](CCC(=O)O)NC(=O)[C@H](CCC(=O)O)NC(=O)[C@H](CCC(=O)O)NC(=O)CN2CCN(CC(=O)O)CCN(CC(=O)O)CCN(CC(=O)O)CC2)C(N)=O)NC(=O)CNC(=O)[C@H](Cc2ccc3ccccc3c2)NC(=O)[C@@H](CCCNC(=N)N)NC1=O [[^177Lu]Lu-BL02, metal not drawn] (FY[Lys(iPr)][dR][2Nal]G[dE][Lys(iPr)]K([Glu-Glu-Glu-DOTA])-NH2; lactam N-7)
- Absorbed Dose, Adrenals (Adrenals): 0.00413 mGy/MBq
- Absorbed Dose, Brain (Brain): 4.5e−05 mGy/MBq
- Absorbed Dose, Esophagus (Esophagus): 0.000564 mGy/MBq
- Absorbed Dose, Eyes (Eyes): 0.000296 mGy/MBq
- Absorbed Dose, Gallbladder Wall (Gallbladder Wall): 0.000923 mGy/MBq
- Absorbed Dose, Heart (Heart): 0.00148 mGy/MBq
- Absorbed Dose, Kidneys (Kidneys): 0.0332 mGy/MBq
- Absorbed Dose, Left colon (Left colon): 0.000755 mGy/MBq
- Absorbed Dose, Liver (Liver): 0.0183 mGy/MBq
- Absorbed Dose, Lungs (Lungs): 0.0126 mGy/MBq
- Absorbed Dose, Pancreas (Pancreas): 0.00105 mGy/MBq
- Absorbed Dose, Prostate (Prostate): 0.000336 mGy/MBq
- Absorbed Dose, Rectum (Rectum): 0.000473 mGy/MBq
- Absorbed Dose, Red Marrow (Red Marrow): 0.000377 mGy/MBq
- Absorbed Dose, Remainder of the Body (Remainder of the Body): 0.00117 mGy/MBq
- Absorbed Dose, Right colon (Right colon): 0.000642 mGy/MBq
- Absorbed Dose, Salivary Glands (Salivary Glands): 0.00031 mGy/MBq
- Absorbed Dose, Skeleton (Skeleton): 0.000457 mGy/MBq
- Absorbed Dose, Small Intestine (Small Intestine): 0.000691 mGy/MBq
- Absorbed Dose, Spleen (Spleen): 0.0193 mGy/MBq
- Absorbed Dose, Stomach Wall (Stomach Wall): 0.000883 mGy/MBq
- Absorbed Dose, Testes (Testes): 0.00168 mGy/MBq
- Absorbed Dose, Thymus (Thymus): 0.000454 mGy/MBq
- Absorbed Dose, Thyroid (Thyroid): 0.000396 mGy/MBq
- Absorbed Dose, Urin Blad (Urin Blad): 0.00032 mGy/MBq

— patent publication US20220218852A1, “NOVEL RADIOLABELLED CXCR4-TARGETING COMPOUNDS FOR DIAGNOSIS AND THERAPY” (PROVINCIAL HEALTH SERVICES AUTHORITY, priority 2019, published 2022)
